Holding throughout (format): functional
The test system of assay [1] is Bacillus. Briefly: Antibacterial activity against […] at 50 ug/mL after 48 hrs by cup-plate method.
Assay [2] has as its system Bacillus. Kind of assay: Antibacterial activity against […] at 100 ug/mL after 48 hrs by cup-plate method.
For assay [3], the system named is Bacillus. Briefly: Antibacterial activity against […] at 25 ug/mL after 48 hrs by cup-plate method. The following applies: for zone of inhibition at 25 µg/mL: read-out: IZ.
For assay [4], the system named is Macrophomina phaseolina. Briefly: Antifungal activity against Rhizoctonia bataticola at 25 ug/mL after 48 hrs by cup-plate method.
Assay [5] deals with Aspergillus niger. Kind of assay: Antifungal activity against Aspergillus niger at 50 ug/mL after 48 hrs by cup-plate method.
Assay [6] deals with Macrophomina phaseolina. Kind of assay: Antifungal activity against Rhizoctonia bataticola at 50 ug/mL after 48 hrs by cup-plate method. As to conditions: for zone of inhibition at 50 µg/mL: read-out: IZ.
For assay [7], the system named is Escherichia coli. Briefly: Antibacterial activity against Escherichia coli at 50 ug/mL after 48 hrs by cup-plate method.
Assay [8] has as its system Macrophomina phaseolina. Briefly: Antifungal activity against Rhizoctonia bataticola at 100 ug/mL after 48 hrs by cup-plate method.
Assay [9] deals with Aspergillus niger. Kind of assay: Antifungal activity against Aspergillus niger at 100 ug/mL after 48 hrs by cup-plate method.
Assay [10] deals with Escherichia coli. Kind of assay: Antibacterial activity against Escherichia coli at 25 ug/mL after 48 hrs by cup-plate method. As to conditions: for zone of inhibition at 25 µg/mL: read-out: IZ.
Assay [11] has as its system Escherichia coli. Briefly: Antibacterial activity against Escherichia coli at 100 ug/mL after 48 hrs by cup-plate method.
The subject of assay [12] is Aspergillus niger. Kind of assay: Antifungal activity against Aspergillus niger at 25 ug/mL after 48 hrs by cup-plate method. The following applies: for zone of inhibition at 25 µg/mL: read-out: IZ.

Activity calls are given as the source filed them. The rule behind the calls is not given here.

With `Cc1cccc2c(COc3ccc(F)cc3)cc(=O)[nH]c12`, the inhibition (as a rule, the percentage by which the read-out fell short of the control) at 50 µg/mL with Bacillus [1] was determined as 31%; in the assay on Aspergillus niger [5], 36%; with Macrophomina phaseolina [6], 36%; in the assay with Escherichia coli [7] it was 33%. Further, the inhibition at 100 µg/mL in the assay with Bacillus [2] turned out to be 62%; with Macrophomina phaseolina [8], 58%; in the assay with Aspergillus niger [9] it was 60%; in the assay on Escherichia coli [11], 57%. For the same compound, the outcome in the assay with Bacillus [3] and with Escherichia coli [10] was inactive. The inhibition at 25 µg/mL amounted to 21% in the assay on Macrophomina phaseolina [4] and 22% with Aspergillus niger [12]. Moreover, the zone of inhibition at 50 µg/mL in the assay with Macrophomina phaseolina [6] amounted to 90 mm. The zone of inhibition at 25 µg/mL with Aspergillus niger [12] is 52 mm.

In the case of `Cc1ccc2c(COc3ccc(Cl)cc3)cc(=O)oc2c1`, the inhibition at 50 µg/mL amounted to 33% in the assay with Bacillus [1], 22% with Aspergillus niger [5], 27% in the assay on Macrophomina phaseolina [6] and 35% with Escherichia coli [7]. For the same compound, the inhibition at 100 µg/mL in the assay on Bacillus [2] stood at 62%; in the assay with Macrophomina phaseolina [8] it was 54%; in the assay on Aspergillus niger [9], 50%; in the assay on Escherichia coli [11] it was 65%. The inhibition at 25 µg/mL in the assay on Bacillus [3] and with Escherichia coli [10] was 14% each time. The zone of inhibition at 25 µg/mL in the assay with Bacillus [3] and in the assay with Escherichia coli [10] was 40 mm in each case. For the same compound, the outcome in the assay with Macrophomina phaseolina [4] and with Aspergillus niger [12] was inactive. For the same compound, the zone of inhibition at 50 µg/mL in the assay with Macrophomina phaseolina [6] worked out at 75 mm.

As to `O=c1cc(COc2ccc(Cl)cc2)c2cc(Cl)ccc2[nH]1`, the inhibition at 50 µg/mL is 31% in the assay with Bacillus [1], 25% in the assay with Aspergillus niger [5], 33% in the assay on Macrophomina phaseolina [6] and 30% in the assay with Escherichia coli [7]. The inhibition at 100 µg/mL with Bacillus [2] stood at 60%; in the assay on Macrophomina phaseolina [8], 55%; with Aspergillus niger [9], 53%; in the assay on Escherichia coli [11], 50%. Also, the outcome in the assay on Bacillus [3], in the assay on Macrophomina phaseolina [4], with Escherichia coli [10] and with Aspergillus niger [12] was inactive. Besides, the zone of inhibition at 50 µg/mL in the assay on Macrophomina phaseolina [6] was 84 mm.

`O=c1cc(CNc2ccc(F)cc2)c2ccccc2[nH]1`: the inhibition at 50 µg/mL stood at 36% with Bacillus [1], 41% in the assay with Aspergillus niger [5], 36% in the assay with Macrophomina phaseolina [6] and 34% in the assay on Escherichia coli [7]. The inhibition at 100 µg/mL with Bacillus [2] turned out to be 68%; with Macrophomina phaseolina [8], 60%; with Aspergillus niger [9], 63%; with Escherichia coli [11] it was 57%. The outcome in the assay on Bacillus [3] and in the assay on Escherichia coli [10] was inactive. For the same compound, the inhibition at 25 µg/mL with Macrophomina phaseolina [4] came out at 21%; in the assay on Aspergillus niger [12], 24%. Moreover, the zone of inhibition at 50 µg/mL in the assay on Macrophomina phaseolina [6] is 90 mm. The zone of inhibition at 25 µg/mL with Aspergillus niger [12] was 54 mm.

Consider `CCn1cc(C(=O)O)c(=O)c2cc(F)c(N3CCNCC3)cc21` [NORFLOXACIN], for which the inhibition at 50 µg/mL in the assay on Bacillus [1], with Aspergillus niger [5], in the assay with Macrophomina phaseolina [6] and in the assay with Escherichia coli [7] was 100% in each case. Moreover, the inhibition at 100 µg/mL in the assay on Bacillus [2], in the assay with Macrophomina phaseolina [8], in the assay with Aspergillus niger [9] and with Escherichia coli [11] was 100% in each case. The inhibition at 25 µg/mL in the assay with Bacillus [3], with Macrophomina phaseolina [4], in the assay with Escherichia coli [10] and in the assay on Aspergillus niger [12] was 100% each time.

As to `Cc1ccc2c(COc3ccc(F)cc3)cc(=O)oc2c1`, the inhibition at 50 µg/mL was 37% in the assay with Bacillus [1], 21% in the assay with Aspergillus niger [5], 30% with Macrophomina phaseolina [6] and 37% with Escherichia coli [7]. Further, the inhibition at 100 µg/mL with Bacillus [2] came to 64%; in the assay on Macrophomina phaseolina [8] it was 53%; in the assay with Aspergillus niger [9], 52%; in the assay on Escherichia coli [11], 62%. Besides, the inhibition at 25 µg/mL was 21% in the assay with Bacillus [3] and 17% with Escherichia coli [10]. The zone of inhibition at 25 µg/mL in the assay with Bacillus [3] was determined as 50 mm; in the assay on Escherichia coli [10], 44 mm. Also, the outcome in the assay on Macrophomina phaseolina [4] and in the assay on Aspergillus niger [12] was inactive. Further, in the assay on Macrophomina phaseolina [6], the zone of inhibition at 50 µg/mL worked out at 80 mm.

As to `Cc1ccc2c(CNc3ccc(Cl)cc3)cc(=O)oc2c1`, the inhibition at 50 µg/mL in the assay with Bacillus [1] amounted to 34%; with Aspergillus niger [5], 21%; in the assay with Macrophomina phaseolina [6], 32%; in the assay with Escherichia coli [7], 36%. The inhibition at 100 µg/mL with Bacillus [2] was determined as 60%; in the assay with Macrophomina phaseolina [8], 54%; in the assay with Aspergillus niger [9] it was 52%; in the assay with Escherichia coli [11] it was 62%. For the same compound, the inhibition at 25 µg/mL with Bacillus [3] and in the assay with Escherichia coli [10] was 17% in each case. The zone of inhibition at 25 µg/mL in the assay on Bacillus [3] and in the assay with Escherichia coli [10] was 44 mm each time. For the same compound, the outcome with Macrophomina phaseolina [4] and in the assay on Aspergillus niger [12] was inactive. The zone of inhibition at 50 µg/mL with Macrophomina phaseolina [6] amounted to 84 mm.

`O=c1cc(COc2ccc(Br)cc2)c2cc(Cl)ccc2[nH]1`: the inhibition at 50 µg/mL was found to be 25% with Bacillus [1], 36% with Aspergillus niger [5], 32% in the assay with Macrophomina phaseolina [6] and 30% with Escherichia coli [7]. The inhibition at 100 µg/mL in the assay with Bacillus [2] worked out at 58%; in the assay with Macrophomina phaseolina [8], 55%; with Aspergillus niger [9], 62%; in the assay with Escherichia coli [11] it was 50%. The outcome in the assay on Bacillus [3], in the assay on Macrophomina phaseolina [4] and in the assay on Escherichia coli [10] was inactive. In the assay on Macrophomina phaseolina [6], the zone of inhibition at 50 µg/mL was 82 mm. This compound returned an inhibition at 25 µg/mL with Aspergillus niger [12] of 21%. In addition, the zone of inhibition at 25 µg/mL in the assay on Aspergillus niger [12] worked out at 50 mm.

As for `O=c1cc(CNc2ccc(F)cc2)c2cc(Cl)ccc2o1`, the inhibition at 50 µg/mL in the assay with Bacillus [1] was found to be 83%; in the assay on Aspergillus niger [5], 73%; with Macrophomina phaseolina [6], 76%; with Escherichia coli [7], 64%. Besides, the inhibition at 100 µg/mL turned out to be 99% in the assay on Bacillus [2], 91% in the assay with Macrophomina phaseolina [8], 90% with Aspergillus niger [9] and 95% in the assay with Escherichia coli [11]. Also, the inhibition at 25 µg/mL in the assay with Bacillus [3] was found to be 64%; in the assay on Macrophomina phaseolina [4], 68%; in the assay on Escherichia coli [10], 51%; in the assay with Aspergillus niger [12], 64%. Besides, in the assay with Escherichia coli [10], the zone of inhibition at 25 µg/mL is 92 mm.
